The values that follow come from US9814709B2, “Bruton's tyrosine kinase inhibitor” (HEFEI INSTITUTES OF PHYSICAL SCIENCE, CHINESE ACADEMY OF …, priority 2014, dated 2017).

For one experiment, the target named is T1, BTK C481S protein (Homo sapiens, UniProt Q06187, C481S).
T1 construct: made in house; host or cells: 293T cells
Nature of the experiment: Btk acellular kinase assay, BTK C481S mutant protein purified from transfected 293T cells. Type of experiment: biochemical. The conditions noted are these: 3-1000 nM, 100 μM ATP. As for the experimental part:
The BTK wild-type plasmid and the BTK mutant plasmid (C481S) were respectively transfected into 293T cells (purchased from ATCC), and the resultant cells were marked as BTK WT 293T cells and BTK C481S 293T cells, respectively. After cell culture for 2 days, the cells were harvested and purified to give BTK WT and BTK C481S proteins. The compounds of formula (I) were added to the BTK WT and BTK C481S proteins at different concentrations of 3 nM, 10 nM, 30 nM, 100 nM, 300 nM and 1000 nM, respectively, and reacted at room temperature for 30 min, followed by the addition of 100 μM ATP at 37° C. and reacting for 20 min.

Experiment [1] has as its system PLCγ2Y1217 phosphorylation. The experiment can be described thus: Phosphorylation of PLCγ2 Y1217 in anti-IgM stimulated Ramos cells. Type of experiment: cell-based. The conditions noted are these: Homo sapiens, 4 hrs treatment, anti-IgM 10 min, read-out: EC50, inhibition of phosphorylation of PLCγ2Y1217. As for the experimental part:
(§1) We further characterized the properties of the compounds by assaying a number of cellular biochemical and functional endpoints. In particular, we assessed the selectivity of Compound 1 for inhibition of Btk versus the closely related protein kinases S6K, AKT, ErK, JAK3, and STAT5. Ramos cells (human B cells, purchased from ATCC) were treated with different concentrations of 10 nM, 100 nM, 1000 nM of the compounds of formula (I) for 4 hrs, followed by stimulation with anti-IgM for 10 min, and then the samples were harvested. We determined the effect of compounds on phosphorylation of BTKY223, PLCγ1Y783, PLCγ2Y759, PLCγ2Y1217, AKTT308, Erk1/2T202/204, JAK3 T980/981, STAT5 T694, mTORC1T389, MNK2 (FIG. 1).

The target of the next experiment is T2, tyrosine Y223 on Btk (Homo sapiens, UniProt Q06187).
T2 construct: host or cells: Ramos cells
The experiment can be described thus: Phosphorylation of BTK Y223 in anti-IgM stimulated Ramos cells. The experiment is classed as cell-based. The conditions noted are these: 4 hrs treatment, anti-IgM 10 min, read-out: EC50, inhibition of phosphorylation of tyrosine Y223 on Btk. As for the experimental part:
as §1

For a further experiment, the target named is T3, EGFR (T790M) (Homo sapiens, UniProt P00533, T790M).
T3 construct: The intracellular segment (699-1068) region of EGFR was cloned into the insect expression vector pAcG2T; GST; made in house; host or cells: SF9 insect cells (baculovirus)
The experiment can be described thus: In vitro enzymatic activity (ADP-Glo). Type of experiment: biochemical. The conditions noted are these: 4 hrs preincubation, 10 μM ATP. As for the experimental part: (§2) In the experimental assay of in vitro enzymatic activity, the IC50 values of Compound 1 and Compound 19 on different kinases including BTK, EGFR (WT), EGFR/T790M, EGFR L858R/T790M, JAK1, JAK2, and JAK3 were determined. The intracellular segment (699-1068) region of EGFR was cloned into the insect expression vector pAcG2T, and was protein expressed by using an insect expression system, BaculoGold™ Baculovirus Expression System (BD Pharmingen), with GST tag. The mutations of T790M and L858R sites were performed simultaneously to give T790M single mutant vector and T790M/L858R double mutant vector of EGFR, respectively. The established vectors were transfected into SF9 packaging viruses, so as to infect the SF9-expressed proteins with the viruses; JAK1 and JAK2 were purchased from Life Technologies (US) and Abcam (US), respectively; JAK3 and BTK were purchased from Progema (US).
(§3) BTK protein kinase 9 μL (concentration of 1.5 ng/μL), JAK1, JAK2, JAK3 protein kinases 9 μL (concentration of 3 ng/μL, 3 ng/μL, 1.5 ng/μL), purified EGFR (WT), EGFR (T790M), EGFR (T790M/L858R) protein kinases 9 μL (all with concentration of 6 ng/μL) were respectively used, and each was reacted with three-fold gradient dilution of pharmaceutical Compound 1 and Compound 19 (final concentrations of the agents were 10 μM, 3 μM, 1 μM, 0.3 μM, 0.1 μM, 0.03 μM, 0.01 μM, 0.003 μM), respectively, at room temperature for 4 hrs;
(§4) 2 μL of ATP and 3 μL of substrate, Poly(4:1 Glu, Tyr)Peptide (Promega, US), were added (final concentrations are 10 μM and 0.2 μg/μL, respectively), and reacted at 37° C. for 1 hr;
(§5) 5 μL of reacted kinase solution was added into 5 μL of ADP-Glo™ (Promega, US) and reacted at room temperature for 40 min, the kinase reaction was stopped and the remained ATP was consumed;
(§6) 10 μL of kinase detection reagent was added to transfer ADP into ATP, and the newly obtained ATP was detected by using coupled luciferase/fluorescein reaction, then the IC50 values were calculated by using a plotting method based on the Envision reading.

The target of the next experiment is T4, EGFR (T790M/L858R) (Homo sapiens, UniProt P00533, L858R/T790M).
T4 construct: The intracellular segment (699-1068) region of EGFR was cloned into the insect expression vector pAcG2T; GST; made in house; host or cells: SF9 insect cells (baculovirus)
The experiment can be described thus: In vitro enzymatic activity (ADP-Glo). The experiment is classed as biochemical. The following applies: 4 hrs preincubation, 10 μM ATP. As for the experimental part:
as §2, §3, §4, §5, §6
On the technique in general: In ADP-Glo the light output rises with the ADP produced.

The target in a further experiment is T5, EGFR (WT) (Homo sapiens, UniProt P00533).
T5 construct: The intracellular segment (699-1068) region of EGFR was cloned into the insect expression vector pAcG2T; GST; made in house; host or cells: SF9 insect cells (baculovirus)
The experiment can be described thus: In vitro enzymatic activity (ADP-Glo). Type of experiment: biochemical. The following applies: 4 hrs preincubation, 10 μM ATP. As to the method: as §2, §3, §4, §5, §6

For a further experiment, the target named is T6, JAK3 (Homo sapiens, UniProt P52333).
T6 construct: purchased Progema (US) [sic; Promega]
The experiment can be described thus: In vitro enzymatic activity (ADP-Glo). The conditions noted are these: 4 hrs preincubation, 10 μM ATP. The experiment is classed as biochemical. As for the experimental part: as §2, §3, §4, §5, §6

The next experiment deals with BTK (Homo sapiens, UniProt Q06187). Nature of the experiment: In vitro enzymatic activity (ADP-Glo). The experiment is classed as biochemical. The following applies: 4 hrs preincubation, 10 μM ATP. Details: purchased Progema (US) [sic; Promega]. As to the method: as §2, with “(US). […]” for “(US).”
as §6

T1 sequence (Q06187 whole entry C481S): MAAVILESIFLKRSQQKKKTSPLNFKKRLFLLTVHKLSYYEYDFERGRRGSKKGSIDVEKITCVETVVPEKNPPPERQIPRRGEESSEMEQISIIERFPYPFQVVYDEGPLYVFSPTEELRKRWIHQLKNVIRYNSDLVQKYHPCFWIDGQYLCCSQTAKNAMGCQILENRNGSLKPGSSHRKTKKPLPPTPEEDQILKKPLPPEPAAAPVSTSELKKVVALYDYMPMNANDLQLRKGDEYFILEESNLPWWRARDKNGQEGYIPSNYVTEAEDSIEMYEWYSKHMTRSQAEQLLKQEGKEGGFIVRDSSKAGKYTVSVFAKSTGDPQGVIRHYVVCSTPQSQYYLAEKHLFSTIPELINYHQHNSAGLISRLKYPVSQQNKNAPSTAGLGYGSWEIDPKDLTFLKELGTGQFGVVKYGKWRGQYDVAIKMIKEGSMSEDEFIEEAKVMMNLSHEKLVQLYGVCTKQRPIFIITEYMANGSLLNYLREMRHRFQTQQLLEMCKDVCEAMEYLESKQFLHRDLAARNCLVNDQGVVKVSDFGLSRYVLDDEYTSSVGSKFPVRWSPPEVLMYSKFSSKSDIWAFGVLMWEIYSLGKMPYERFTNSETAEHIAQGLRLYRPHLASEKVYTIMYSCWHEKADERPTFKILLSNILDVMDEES
T4 sequence (P00533 699-1068 T790M/L858R): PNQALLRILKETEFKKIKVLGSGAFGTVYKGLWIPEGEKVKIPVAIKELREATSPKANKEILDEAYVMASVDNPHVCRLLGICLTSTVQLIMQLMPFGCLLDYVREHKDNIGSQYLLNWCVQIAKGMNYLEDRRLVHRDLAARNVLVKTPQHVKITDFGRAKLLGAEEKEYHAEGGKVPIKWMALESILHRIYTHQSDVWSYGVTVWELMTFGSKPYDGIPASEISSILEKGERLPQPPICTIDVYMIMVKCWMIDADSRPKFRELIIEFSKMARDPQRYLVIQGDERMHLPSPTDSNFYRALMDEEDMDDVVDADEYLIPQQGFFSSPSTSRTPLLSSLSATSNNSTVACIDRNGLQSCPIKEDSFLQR
T6 sequence (P52333 whole entry): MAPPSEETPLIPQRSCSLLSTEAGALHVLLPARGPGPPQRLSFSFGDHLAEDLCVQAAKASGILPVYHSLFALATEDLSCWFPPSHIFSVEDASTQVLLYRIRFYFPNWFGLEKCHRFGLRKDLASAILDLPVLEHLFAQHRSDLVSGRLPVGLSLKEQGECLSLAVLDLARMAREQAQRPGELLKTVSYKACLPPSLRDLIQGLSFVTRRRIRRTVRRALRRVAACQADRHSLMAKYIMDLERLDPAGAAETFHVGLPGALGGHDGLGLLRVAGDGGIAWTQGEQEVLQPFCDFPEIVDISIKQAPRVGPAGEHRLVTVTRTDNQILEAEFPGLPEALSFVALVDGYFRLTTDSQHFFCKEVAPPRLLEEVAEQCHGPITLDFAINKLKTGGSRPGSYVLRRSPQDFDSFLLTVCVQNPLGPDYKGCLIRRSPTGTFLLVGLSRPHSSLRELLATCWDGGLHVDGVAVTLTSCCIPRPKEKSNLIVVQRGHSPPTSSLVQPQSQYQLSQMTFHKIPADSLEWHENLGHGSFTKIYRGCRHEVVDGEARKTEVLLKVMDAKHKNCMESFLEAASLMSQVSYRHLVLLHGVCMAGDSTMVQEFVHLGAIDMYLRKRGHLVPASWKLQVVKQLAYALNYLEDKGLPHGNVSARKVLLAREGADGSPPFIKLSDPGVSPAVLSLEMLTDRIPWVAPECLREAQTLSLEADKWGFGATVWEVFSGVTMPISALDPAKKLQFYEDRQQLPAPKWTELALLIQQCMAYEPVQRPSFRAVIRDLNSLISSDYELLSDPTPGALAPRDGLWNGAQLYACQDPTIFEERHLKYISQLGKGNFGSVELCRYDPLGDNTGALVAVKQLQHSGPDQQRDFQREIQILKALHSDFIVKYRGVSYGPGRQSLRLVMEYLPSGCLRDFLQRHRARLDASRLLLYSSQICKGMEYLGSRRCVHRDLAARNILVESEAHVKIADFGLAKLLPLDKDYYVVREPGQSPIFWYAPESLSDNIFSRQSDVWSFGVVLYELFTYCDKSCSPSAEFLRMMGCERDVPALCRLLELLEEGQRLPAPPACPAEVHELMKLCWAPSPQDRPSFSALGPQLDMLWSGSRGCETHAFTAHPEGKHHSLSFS
T5 sequence (P00533 699-1068): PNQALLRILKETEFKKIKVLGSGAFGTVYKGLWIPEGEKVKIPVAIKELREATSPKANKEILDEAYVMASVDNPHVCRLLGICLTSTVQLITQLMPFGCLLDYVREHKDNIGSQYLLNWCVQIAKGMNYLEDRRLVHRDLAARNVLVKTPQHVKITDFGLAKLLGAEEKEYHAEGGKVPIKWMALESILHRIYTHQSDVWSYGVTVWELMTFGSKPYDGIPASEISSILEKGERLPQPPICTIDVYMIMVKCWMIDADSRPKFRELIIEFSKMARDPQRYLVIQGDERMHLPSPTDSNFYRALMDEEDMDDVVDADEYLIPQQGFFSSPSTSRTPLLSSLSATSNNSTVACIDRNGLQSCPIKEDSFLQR
Sequence of BTK (Q06187 whole entry): as the sequence (Q06187 whole entry C481S) above, with S481C counted along it
T2 sequence (Q06187 whole entry): as the sequence (Q06187 whole entry C481S) above, with S481C counted along it
T3 sequence (P00533 699-1068 T790M): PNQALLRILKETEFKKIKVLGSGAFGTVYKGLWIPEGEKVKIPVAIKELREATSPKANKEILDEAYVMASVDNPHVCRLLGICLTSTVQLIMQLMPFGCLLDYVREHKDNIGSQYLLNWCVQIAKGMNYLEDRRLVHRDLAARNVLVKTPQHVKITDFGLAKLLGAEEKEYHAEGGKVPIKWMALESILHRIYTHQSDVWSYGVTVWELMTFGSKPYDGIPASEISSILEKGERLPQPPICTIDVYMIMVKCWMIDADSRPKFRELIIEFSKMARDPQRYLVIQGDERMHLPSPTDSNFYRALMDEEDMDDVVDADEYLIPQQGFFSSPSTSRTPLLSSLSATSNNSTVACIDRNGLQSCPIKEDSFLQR

By EC50 is commonly meant the concentration at which the effect is half-maximal. One may read the IC50 as the concentration that gives 50% inhibition. As to `C=CC(=O)Nc1cc(-n2c(=O)ccc3cnc4ccc(-n5cccn5)cc4c32)ccc1C` [Compound 1, N-(2-methyl-5-(2-oxo-9-(1H-pyrazol-1-yl)benzo[H][1,6]naphthyridin-1(2H)-yl)phenyl)acrylamide], the “inhibitory effect on BTK C481S” value against BTK C481S protein is “no inhibition”. Besides, the EC50 is 0.36 µM in experiment [1] and 0.217 µM on tyrosine Y223 on Btk. Besides, the IC50 was 5.5 µM against EGFR (T790M); 1.34 µM against EGFR (T790M/L858R); 2.45 µM against EGFR (WT); 0.169 µM on JAK3; 0.0756 µM against BTK.

Turning to `CCC(=O)Nc1cc(-n2c(=O)ccc3cnc4ccc(-n5cccn5)cc4c32)ccc1C` [Compound 19, N-(2-methyl-5-(2-oxo-9-(1H-pyrazol-1-yl)benzo[H][1,6]naphthyridin-1(2H)-yl)phenyl) propionamide], the “inhibitory effect on BTK C481S” value at BTK C481S protein is recorded as “no inhibitory effect”.
